Patent US11306102B2, “1,3-di-substituted ketene compound and application thereof” (BEBETTER MED INC., priority 2017, dated 2022)

Key:
PPARα = molecular target: T1, PPARα (Homo sapiens, UniProt Q07869); assay: Hela cell/luciferase reporter gene method, PPARα agonist activity; format: cell-based; conditions: Hela cells, pPPRE3-TK-Luciferase reporter, 24 hrs incubation; read-out: agonistic activity on PPAα (EC50)
T1 construct: expressed in transfected cells; host or cells: Hela cells
T1 sequence (Q07869 1-468): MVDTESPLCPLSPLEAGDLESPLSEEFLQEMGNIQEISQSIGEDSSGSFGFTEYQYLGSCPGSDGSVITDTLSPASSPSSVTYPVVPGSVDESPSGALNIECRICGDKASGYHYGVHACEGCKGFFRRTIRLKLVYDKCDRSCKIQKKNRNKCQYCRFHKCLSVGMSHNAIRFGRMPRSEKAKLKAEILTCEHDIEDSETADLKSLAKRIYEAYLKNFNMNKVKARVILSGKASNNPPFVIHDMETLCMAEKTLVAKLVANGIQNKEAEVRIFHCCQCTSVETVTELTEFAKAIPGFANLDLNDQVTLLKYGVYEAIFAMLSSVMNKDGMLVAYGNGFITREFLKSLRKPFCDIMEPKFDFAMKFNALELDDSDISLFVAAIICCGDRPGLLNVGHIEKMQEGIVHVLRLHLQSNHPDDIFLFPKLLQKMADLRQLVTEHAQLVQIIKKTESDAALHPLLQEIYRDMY
Protocol: (§1) This example measures the biological activity of a PPAR agonist using the Hela cell/luciferase reporter gene method.
(§2) The target plasmids PCMV PPARα (Ampicillin+), PCMV PPARγ (Ampicillin+), PCMV PPARδ (Ampicillin+), and pPPRE3-TK-Luciferase (Ampicillin+) were introduced into DH5a competent cells by heat shock treatment, respectively. After being incubated for 1 hour at 37° C. with shaking (180 rpm), the cells were inoculated on LB agar solid medium containing antibiotic Ampicillin, and invertedly cultured at 37° C. for 12-16 hours. Then the monoclonal colony cultured on the medium was taken and inoculated into LB liquid medium for expanded culture. The desired plasmid was extracted from the resulting bacterial solution with a Plasmid Midi Kit (Qiagen; #12143). The plasmid obtained by centrifugation was suspended in TE buffer, and the plasmid concentration was measured and the mixture was stored at −20° C. Hela cells in the exponential phase were seeded in 6-well plates (8-10^5 cells/well), and after 6-8 hours of culture, the cells were transfected using Lipofectamine® 3000 Transfection Reagent (Invitrogen; #L3000015). A plasmid containing a PPAR binding site (peroxisome proliferator response element, PPRE) and a firefly luciferase gene (pPPRE3-TK-Luciferase) and PPAR expression vector were co-transfected into a Hela cell with a total amount of plasmid DNA of 2.5 ug (the mass ratio of each PPAR expression vector is pPPRE:PPARα=6:1, pPPRE:PPARδ=8:1, and pPPRE:PPARγ=2:1) to construct a drug screening cell model for PPAR agonists. PPAR was binded to the ligand and then binded to the peroxisome proliferator response element (PPRE), thereby initiating downstream firefly luciferase expression and its expression intensity was directly proportional to the degree of PPAR activation. The cells after 24 hours transfection were prepared into a cell suspension with a cell concentration of […] by a complete culture solution, and seeded into a 96-well plate with 100 ul per well. After overnight culture, the medium was changed to a medium containing 1% FBS. 10 mM candidate compound stock (1000×) were 4-fold diluted in DMSO for 8 points, then supplemented with medium containing 1% FBS to a final concentration of 50 uM (5×) by addition of 25 μl of 5× compound diluent to each well in different concentration gradients and incubated under 37° C., 5% CO2 incubator for 24 hrs. The 96-well plate was taken out and 30 μl of Bright-Glo™ Luciferase Assay System (Promega #E2620) was added to each well. The Luciferase luminescence intensity was measured by a SynergyH1 full-function microplate detector. The obtained data was used to calculate EC50 using GraphPad Prism 5.0 software to determine the biological activity of the compound.
(§3) The agonistic activity of the compounds synthesized in Examples 1-41 on PPAR is represented by EC50 (see Table 1). EC50 refers to the drug concentration at which the compound has a 50% increase in the agonistic activity of the measured PPAR. The compound numbers in Table 1 correspond to the compound numbers in Examples 1-41.

PPARγ = molecular target: T2, PPARγ (Homo sapiens, UniProt P37231); assay: Hela cell/luciferase reporter gene method, PPARγ agonist activity; format: cell-based; conditions: Hela cells, pPPRE3-TK-Luciferase reporter, 24 hrs incubation; read-out: agonistic activity on PPARγ (EC50)
T2 construct: expressed in transfected cells; host or cells: Hela cells
T2 sequence (P37231 1-505): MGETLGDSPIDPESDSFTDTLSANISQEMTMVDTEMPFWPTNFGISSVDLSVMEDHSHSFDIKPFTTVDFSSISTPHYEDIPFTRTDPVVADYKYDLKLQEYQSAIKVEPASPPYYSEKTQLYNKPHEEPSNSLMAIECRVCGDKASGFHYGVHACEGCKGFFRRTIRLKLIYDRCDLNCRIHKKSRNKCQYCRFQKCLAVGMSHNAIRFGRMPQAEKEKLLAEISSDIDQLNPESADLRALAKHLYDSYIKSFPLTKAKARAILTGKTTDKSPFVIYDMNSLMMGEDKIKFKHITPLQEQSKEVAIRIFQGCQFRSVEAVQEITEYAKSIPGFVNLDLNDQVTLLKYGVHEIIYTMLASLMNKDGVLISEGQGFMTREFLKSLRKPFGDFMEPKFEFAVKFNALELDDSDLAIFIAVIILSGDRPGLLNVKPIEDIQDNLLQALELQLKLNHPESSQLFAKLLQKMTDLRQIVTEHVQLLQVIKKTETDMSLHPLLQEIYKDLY
Protocol: as §1, §2, §3

PPARδ = molecular target: T3, PPARδ (Homo sapiens, UniProt Q03181); assay: Hela cell/luciferase reporter gene method, PPARδ agonist activity; format: cell-based; conditions: Hela cells, pPPRE3-TK-Luciferase reporter, 24 hrs incubation; read-out: agonistic activity on PPARδ (EC50)
T3 construct: expressed in transfected cells; host or cells: Hela cells
T3 sequence (Q03181 1-441): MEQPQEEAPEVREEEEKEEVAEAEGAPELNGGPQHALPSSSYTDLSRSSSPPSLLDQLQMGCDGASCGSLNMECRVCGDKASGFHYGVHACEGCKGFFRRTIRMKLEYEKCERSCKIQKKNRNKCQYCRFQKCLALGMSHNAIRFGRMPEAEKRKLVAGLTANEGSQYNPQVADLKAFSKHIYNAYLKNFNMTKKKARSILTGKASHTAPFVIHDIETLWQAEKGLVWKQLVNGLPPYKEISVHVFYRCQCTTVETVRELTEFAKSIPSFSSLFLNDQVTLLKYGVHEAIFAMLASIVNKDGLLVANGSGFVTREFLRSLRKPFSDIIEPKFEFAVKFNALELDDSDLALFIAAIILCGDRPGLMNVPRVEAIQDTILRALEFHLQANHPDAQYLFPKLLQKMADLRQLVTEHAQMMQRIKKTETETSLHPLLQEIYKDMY
Protocol: as §1
as §2, with “The desired plasmid was extracted from the resulting bacterial solution with a Plasmid Midi Kit (Qiagen; #12143).” left out

[1] = Pharmacokinetic (PK) experiments after intragastric administration in rats; format: in vivo, SD rats; conditions: male, SD, rat, plasma, po, intragastric administration 20 mg/kg
Protocol: Male SD rats, weighing 250-300 grams, were fasted overnight before testing. The test compound was dissolved in 30% sulfobutyl-R-cyclodextrin (SBE-β-CD) and administered intragastrically at a dose of 20 mg/kg. Blood was collected 15 minutes, 30 minutes, and 1, 2, 3, 4, […] and 24 hours after the administration. About 0.3 ml of blood was collected at each time point, placed in a centrifuge tube containing K2-EDTA (dipotassium ethylenediamine tetraacetate) and centrifuged (2,000 g, 10 minutes, 4° C.) to take the plasma, which was stored in an ultra-low temperature refrigerator at −80° C. A 50 μL plasma sample was mixed with 5 μl of internal standard (IS) and extracted with ethyl acetate. The residue was redissolved in acetonitrile after drying under vacuum. The sample was filtered and injected into an LC-MS/MS for analysis.

Row | SMILES | EC50 (PPARα) [nM] | EC50 (PPARγ) [nM] | other results
1 | Cc1cc(/C=C/C(=O)c2cccc3ccoc23)cc(C)c1OC(C)(C)C(=O)O [Compound 3, (E)-2-(4-(3-(benzofuran-7-yl)-3-oxoprop-1-en-1-yl)-2,6-dimethylphenoxy)-2-methylpropanoic acid] | 453 | 577 | –
2 | CSc1ccc(C(=O)/C=C/c2ccc(OC(C)(C)C(=O)O)cc2)c2occc12 [Compound 12, (E)-2-methyl-2-(4-(3-(4-(methylthio)benzofuran-7-yl)-3-oxoprop-1-en-1-yl)phenoxy)propanoic acid] | 99.8 | 279 | –
3 | CSc1ccc(C(=O)/C=C/c2cc(C)c(OCC(=O)O)c(C)c2)c2occc12 [Compound 13, (E)-2-(2,6-dimethyl-4-(3-(4-(methylthio)benzofuran-7-yl)-3-oxoprop-1-en-1-yl)phenoxy)acetic acid] | 476 | 3410 | –
4 | CSc1ccc(C(=O)/C=C/c2cc(C)c(OC(C)(C)C(=O)O)c(C)c2)c2oc(C)cc12 [Compound 14, (E)-2-(2,6-dimethyl-4-(3-(2-methyl-4-(methylthio)benzofuran-7-yl)-3-oxoprop-1-en-1-yl)phenoxy)-2-methylpropanoic acid] | 156 | 122 | –
5 | Cc1cc(/C=C/C(=O)c2ccc3sccc3c2)cc(C)c1OC(C)(C)C(=O)O [Compound 38, (E)-2-(4-(3-(benzo[b]thiophen-5-yl)-3-oxoprop-1-en-1-yl)-2,6-dimethylphenoxy)-2-methylpropanoic acid] | > 10000 | – | EC50 (PPARδ): 838 nM
6 | Cc1ccc2cc(C(=O)/C=C/c3cc(C)c(OC(C)(C)C(=O)O)c(C)c3)oc2c1 [Compound 50, (E)-2-(2,6-dimethyl-4-(3-(6-methylbenzofuran-2-yl)-3-oxoprop-1-en-1-yl)phenoxy)-2-methylpropanoic acid] | 123 | 167 | –
7 | CSc1ccc2cc(C(=O)/C=C/c3ccc(OC(C)(C)C(=O)O)cc3)oc2c1 [Compound 56, (E)-2-methyl-2-(4-(3-(6-(methylthio)benzofuran-2-yl)-3-oxoprop-1-en-1-yl)phenoxy)propanoic acid] | 83.9 | 1100 | –
8 | CSc1ccc(C(=O)/C=C/c2cc(C)c(OC(C)(C)C(=O)O)c(C)c2)cc1 [Elafibranor, reference compound] | 29.2 | 86.6 | AUC(0-inf) [1]: 1350 ng·h/mL; AUC(0-t) [1]: 1350 ng·h/mL; Cmax [1]: 1140 ng/mL; Tmax [1]: 19.8 min; half-life ([1]; read-out: Terminal T1/2 (converted)): 49.2 min
